Read-outs that look alike come from different tables or passages of the source.
Experiments:
Anbl 6 = assay: Cell proliferation and viability assay for MM lines; format: cell-based; conditions: Homo sapiens, 120 h, Anbl 6, 5 days, 7AAD FACS
Description: Cell Proliferation and Viability Assay for MM Lines. Prior to use, cells were washed and maintained in medium for 5 days. Cells were seeded out at a density of 0.3×10^6 cells/mL in a 12-well plate and treated with Compound 1 or Compound 2 for 5 days. 7AAD detection fluorescence-activated cell sorting (FACS) flow cytometry was used in the analysis.

[1] = system: Hep3B2.1-7 human liver tumor cells; assay: Hepatocellular carcinoma (Hep3B2.1-7) orthotopic study; format: in vivo, mice; conditions: 10 mg/kg daily p.o., three weeks; FIGS. 17-18
Description: Hepatocellular Carcinoma (Hep3B2.1-7) Orthotopic Study. Hep3B2.1-7 human liver tumor cells were cultured in RPMI 1640 cell culture medium, supplemented with 10% FBS, 1% Glutamax and 1% penicillin-streptomycin. The cells were harvested by trypsinization, washed twice in HBSS and counted. The cells were then resuspended in HBSS:Matrigel™ (1:1, v/v) to a final concentration of 2×10^8 cells/mL. Prior to inoculation (while the animal was anesthetized via injectable Ketamil (10 mg/mL)/Xylazil (0.9 mg/mL) anesthetic), the skin on the incision site was swabbed with alcohol and an incision was made into the skin directly over the liver to expose the main lobe of the liver. The needle was introduced into the main lobe of the liver, where 2×10^6 Hep3B2.1-7 cells (in 10 μL with 50% Matrigel™) were discharged. Fourteen days post-inoculation, a satellite group of mice were culled to assess the presence of tumors in the liver.
Compound 1 powder was suspended in 0.5% CMC/0.25% Tween80 to achieve a stock concentration of 2 mg/mL. […]
The Vehicle Control and Test Articles were administered in a dosing volume of 5 mL/kg. Each animal's body weight was measured immediately prior to dosing. The volume of dosing solution administered to each animal was calculated and adjusted based on individual body weight. […]

[2] = system: advanced solid tumors, non-Hodgkin lymphoma or multiple myeloma; assay: Phase 1/2 study Part A: tumor response; format: in vivo, human
Description: Subjects will be evaluated for efficacy every 2 cycles through cycle 6 and every 3 cycles thereafter. The primary efficacy variable is response. Tumor assessments, including imaging (CT, MRI and/or PET) of the chest and abdomen and other sites as appropriate, will be performed during Screening. Subjects with brain lesions will also have brain scans at Screening and during follow-up tumor assessments. After Screening, tumor assessments (for all tumors except multiple myeloma) will be performed on completion of Cycles 2, 4 and 6 (i.e., on Cycles 3, 5 and 7/Day 1±7 days) and then every 3 months thereafter (e.g., Cycle 10 and 13/Day 1±7 days). Tumor assessment (for multiple myeloma and only NHL/DLBCL with known or suspected marrow involvement) (bone marrow aspiration and biopsy, with PD biomarker analysis, cytogenetic analysis if abnormally present at Screening) will be performed on completion of Cycles 4, 8, 12 and 16 only (i.e., on Cycles 5, 9, 13 and 17/Day 1±7 days). Cytogenetics need not be repeated if normal at Screening. Tumor response will be based on Response Evaluation Criteria in Solid Tumors (RECIST 1.1), International Workshop Criteria (IWC) for NHL/DLBCL or International Uniform Response Criteria (IURC) for Multiple Myeloma, and RANO for GBM, using the post resection MRI scan as the baseline. Given the difficulty in assessing tumor response following salvage surgery, the primary efficacy endpoint for GBM will be the proportion of subjects progression-free at 6 months from Day 1 relative to efficacy evaluable subjects in the GBM type. Subjects will be evaluated for tumor response on completion of Cycle 2, 4, 6, and so on. A descriptive analysis of evidence of anti-tumor activity will be provided based on clinical and radiographic assessments by the investigator, which includes assessment of target lesion, non-target lesion, new lesion and overall response.
The efficacy variable of focus for Part A will be best overall response. Other preliminary efficacy variables will be summarized using frequency tabulations for categorical variables or descriptive statistics for continuous variables.
Part A: Accelerated Dose Escalation Results.

MM = assay: Phase 1/2 study Part B: tumor response, MM; format: in vivo, human; conditions: 11 evaluable patients, up to 9 cycles
Description: In Part B, subjects may start Compound 1 at the MTD and/or a lower dose level based on safety, PK and PD data from Part A. Approximately 150 subjects will be treated and evaluated for safety and preliminary antitumor activity after every two cycles of therapy. Tumor types include non-small cell lung cancer (NSCLC), glioblastoma multiforme (GBM), hepatocellular carcinoma (HCC), gastrointestinal neuroendocrine tumor of non-pancreatic origin (NET), diffuse large B-cell lymphoma (DLBCL), multiple myeloma (MM), and hormone receptor positive breast cancer (HRPBC). Up to 20 subjects will be enrolled in each tumor type.
Subjects will be evaluated for efficacy every 2 cycles through cycle 6 and every 3 cycles thereafter. The primary efficacy variable is response. Tumor assessments, including imaging (CT, MRI and/or PET) of the chest and abdomen and other sites as appropriate, will be performed during Screening. Subjects with brain lesions will also have brain scans at Screening and during follow-up tumor assessments. […] Subjects will be evaluated for tumor response on completion of Cycle 2, 4, 6, and so on. […]
For Part B, efficacy variables to be analyzed include tumor response at the end of treatment, the proportion of subject alive and progression-free, and duration of response. […]

[3] = ER+/Her2− breast cancer subject

| SMILES | IC50 (Anbl 6; read-out: IC50, Proliferation) [nM] | IC50 (Anbl 6; read-out: IC50, Viability) [nM] | tumor growth inhibition [1] | regression of target lesions ([2]; 1 breast cancer subject, FIG. 27) | duration of Partial Response, first restaging scan to last scan [2, 3] [days] | duration of partial response, first restaging scan to last dose [2, 3] [days] | time to progression, first dose to last dose [2, 3] [days] | time to progression, first dose to last scan [2, 3] [days] | maximum reduction in target lesions ([2]; ER+/Her2− breast cancer subject, after 10 cycles) [%] | reduction in target lesions ([2]; ER+/Her2− breast cancer subject, first restaging after 2 cycles) [%] | longest duration of SD ([2]; Part A) [weeks] | subjects with target lesion responses in the stable range ([2]; Part A, FIG. 28) | subjects with Stable Disease at first restaging ([2]; Part A, after 2 cycles) | subjects with PR (best overall response) ([2]; Part A, breast cancer, dose escalated from 30 to 45 mg, more than 11 cycles) | tumor responses (IURCMM criteria) (MM) |
| --- | --- | --- | --- | --- | --- | --- | --- | --- | --- | --- | --- | --- | --- | --- | --- |
| CCN1C(=O)CNc2ncc(-c3ccc(-c4nc[nH]n4)nc3C)nc21 [Compound 2, 1-ethyl-7-(2-methyl-6-(1H-1,2,4-triazol-3-yl)pyridin-3-yl)-3,4-dihydropyrazino[2,3-b]pyrazin-2(1H)-one] | 370 | 780 | – | – | – | – | – | – | – | – | – | – | – | – | – |
| CO[C@H]1CC[C@H](N2C(=O)CNc3ncc(-c4ccc(C(C)(C)O)nc4)nc32)CC1 [Compound 1, 7-(6-(2-hydroxypropan-2-yl)pyridin-3-yl)-1-((1r,4r)-4-methoxycyclohexyl)-3,4-dihydropyrazino-[2,3-b]pyrazin-2(1H)-one] | – | – | significant tumor growth inhibition | greater than 30% | 220 | 271 | 328 | 277 | 50 | 30 | 24 | Fifteen subjects | Eight subjects | One subject | No tumor responses |

Reference: patent US9493466B2, “Treatment of cancer with TOR kinase inhibitors” (Signal Pharmaceuticals, LLC, priority 2011, dated 2016)
